Test results from patent publication US20070248672A1, “Indole and Azaindole Derivatives with Antitumor Action” (priority 2004, published 2007).
Read-outs that look alike come from different tables or passages of the source.

Columns and labels:
HepG2 cells = experiment: Antiproliferative activity, 48 h treatment, ATPlite luminescence assay, HepG2; format: cell-based, human; conditions: HepG2, 48 h treatment, read-out: Antiproliferative activity (IC50 ± S.D.) HepG2 48 h treatment
Experimental: HepG2: maintained in EMEM medium+10% FCS.
2.3 Scheme of the Antiproliferative Activity Experiment (Treatment Time: 48 Hours)
The cells (concentration: 30,000 cells/ml) are seeded in 90 μl of the respective culture media in 96-well plates. 24 hours after seeding, an aliquot (10 μl) of the drug at the various concentrations is added (for each concentration there are 3 replicates). After 48 hours of treatment the antiproliferative effect is evaluated with a luminescence assay (Perkin Elmer Life Sciences ATPlite):
50 μl of a lysis solution are added to each well followed by an equal volume of a solution containing luciferase and D-luciferin. The ATP present in all the metabolically active cells brings about the transformation reaction of D-luciferin, catalysed by luciferase, to produce a luminescent signal as described in the following scheme: ATP+D-luciferin+O2→Oxyluciferin+AMP+PP1+CO2+Light
The luminescence produced (expressed in counts per second, CPS) is measured by means of a microplate scintillation analyzer (Perkin Elmer Life Sciences Top Count).
Percentage inhibition of luminescence in the treated cells compared to the control is calculated; concentration-response curves are then analysed using Grafit v.5.0.

HT29/Mit cells [1] = experiment: Antiproliferative activity, 72 h treatment, SRB assay, HT29/Mit resistant line; format: cell-based, human
Experimental: (§1) HT29 and HT29/Mit (line obtained by prolonged exposure to mitoxantrone, and characterised by overexpression of BCRP, which confers cross resistance to topotecan, irinotecan and to its metabolite SN38): maintained in McCoy 5A medium+10% FCS.
(§2) 2.2 Scheme of the Antiproliferative Activity Experiment (Treatment Time: 72 Hours)
(§3) The cells (HT29 and HT29/Mit: 40,000 cells/ml, LoVo, LoVo/Dx and HCT116: 50,000 cells/ml) are seeded in 100 μl of the respective culture media in 96-well plates. 24 hours after seeding, an aliquot (10 μl) of drug at the various concentrations is added. In the samples in which the effect of the combination of two compounds is to be tested the inhibitor is added immediately before the cytotoxic. For each dose or combination of doses/drugs the effect of the treatment is determined in 4-8 replicates.
(§4) After 72 hours of treatment the antiproliferative effect is evaluated using the sulforhodamine B (SRB) assay: the cells are fixed by adding 25 μl of 50% TCA to each well and left for 1 hour at 4° C. After washing them with water and allowing them to dry, 100 μl of 0.4% SRB in 1% acetic acid are added and left for 30 minutes at room temperature. After 4 washes in 1% acetic acid, they are left to dry then the dye fixed by the proteins is dissolved under basic conditions with 100 μl 10 mM cold Tris and the solution is read using a spectrophotometer at 550 nm.
(§5) Percentage cell growth is calculated as the optical density of treated samples compared to the optical density of controls (untreated cells).

HT29 cells [2] = experiment: Antiproliferative activity, 72 h treatment, SRB assay, HT29; format: cell-based, human
Experimental: as §1, §2, §3, §4, §5

[3] = target: Vacuolar ATPase in human osteoclastoma (hOc) (Homo sapiens, UniProt P27449+Q13488); experiment: Vacuolar ATPase inhibition in human osteoclastoma (hOc) microsomal fraction; format: biochemical; conditions: 30 min, 37° C.
Experimental: 1.1 Determination of Vacuolar ATpase Inhibition in Human Osteoclastoma (hOc)
Osteoclast-like giant cells isolated from human osteoclastoma are homogenized using a glass-teflon homogeniser (1000 rpm) and the material is centrifuged for 20 minutes at 6000 g. The resultant pellet is resuspended and centrifuged at 100000 g for 60 minutes to sediment the microsomal fraction. The resultant pellet is resuspended in medium at pH 7.4 and stored under liquid nitrogen.
(§6) Inhibition of bafilomycin sensitive ATPase activity is assayed by measuring the release of inorganic phosphate during 30 minutes of incubation, at 37° C., of the human osteoclastoma microsomal fraction in 96-well plates. The reaction medium contains 1 mM ATP, 10 mM Hepes-Tris buffer pH 8, 50 mM KCl, 5 μM valinomycin, 5 μM nigericin, 1 mM CDTA-Tris, 100 μM ammonium molybdate, 0.2 M sucrose and the microsomal fraction (20 μg protein/ml). The reaction is initiated by adding MgSO4 and terminated, after 30 minutes, by adding 4 volumes of the reagent malachite green, prepared according to Chan K., Anal. Biochem. 157, 375-380, 1986.

[4] = target: Vacuolar ATPase in bovine chromaffin cells membranes (BCG) (Bos taurus, UniProt P23956+Q29466); experiment: Vacuolar ATPase inhibition in bovine chromaffin cells membranes (BCG); format: biochemical; conditions: read-out: ATPase activity (IC50) BCG; bovine chromaffin cell membranes
Experimental: as §6
1.2 Determination of Vacuolar ATpase Inhibition in the Bovine Chromaffin Cells Membranes (BCG)
About 20 adrenal glands (Cidon S., J. Biol. Chem. 258, 2892-2898, 1983) are removed from healthy bovines; the medulla is quickly separated from the cortex, which is discarded. The medulla is homogenised at 4° C. with a suitable medium at pH 7.5, then filtered. The remaining solid material is further homogenised, filtered and recombined with the preceding filtrate, resuspended and centrifuged at 1000 g for 15 minutes; the supernatant obtained is centrifuged at 10000 g for 20 minutes. The resultant pellet is resuspended and stratified through a sucrose gradient formed of a lower part of 15 ml 1.5 M sucrose and an upper part of 10 ml 1.2 M sucrose. After overnight centrifugation at 4° C. with a SW28 rotor at 20000 rpm, the chromaffiln cells sediment into a pellet. This latter is resuspended, centrifuged at 3000 g for 10 minutes, and the supernatant obtained is centrifuged at 200000 g for 60 minutes. The pellet is then resuspended in 4 ml of a suitable medium containing 0.2 μg/ml pepstatin A and 0.4 μg/ml leupeptin and stored under liquid nitrogen.
The method for ATPase inhibition assay is the same as that followed for the osteoclastoma.

HT29 cells [5] = experiment: Co-treatment with topotecan, HT29 cells (Combination Index according to Kern); format: cell-based, human; conditions: HT29 cells
Experimental: as §3, §4, §5
(§7) The Combination Index (C.I.) was determined according to Kern's method, 1988 (who continued from Drewinko B, 1976) (Kem D. H., Cancer Res. 48, 117-121, 1988; Drewinko B., Cancer Biochem. Biophys. 1, 187-195, 1976) by means of the following formula: […], where SFa and SFb are the fractions of cells surviving to treatment with compound a and b, respectively; SFab is the fraction surviving to the combination of compounds a and b. If the result is =1, the interaction between the two compounds is additive; if it is >1, the interaction between the two compounds is synergistic; if it is <1, the interaction between the two compounds is antagonistic.

HT29/Mit cells [6] = experiment: Co-treatment with topotecan, HT29/Mit resistant cells (Combination Index according to Kern); format: cell-based, human; conditions: HT29/Mit cells
Experimental: as §3, §4, §5, §7

[7] = HT-29, 72 h treatment, read-out: Antiproliferative activity (IC50 ± S.D.) HT-29 72 h treatment
[8] = Homo sapiens, HT-29/Mit resistant line, 72 h treatment, read-out: Antiproliferative activity (IC50 ± S.D.) HT-29/Mit
[9] = Homo sapiens, HT-29, 72 h treatment, read-out: Antiproliferative activity (IC50 ± S.D.) HT-29 72 h treatment
[10] = Homo sapiens, HT-29, HT29/Mit, after 72 hours of treatment, range stated for the group, read-out: IC50 values in the resistant line
[11] = Homo sapiens, HT-29, HT29, after 72 hours of treatment, range stated for the group, read-out: IC50 values in the sensitive line

Vacuolar ATPase in bovine chromaffin cells membranes (BCG), sequence (P23956 whole entry, looked up): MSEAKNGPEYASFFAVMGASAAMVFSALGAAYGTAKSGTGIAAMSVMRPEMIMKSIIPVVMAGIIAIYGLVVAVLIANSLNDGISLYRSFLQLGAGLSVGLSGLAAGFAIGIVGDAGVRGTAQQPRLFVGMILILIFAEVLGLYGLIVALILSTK
Vacuolar ATPase in bovine chromaffin cells membranes (BCG), sequence (Q29466 whole entry, looked up): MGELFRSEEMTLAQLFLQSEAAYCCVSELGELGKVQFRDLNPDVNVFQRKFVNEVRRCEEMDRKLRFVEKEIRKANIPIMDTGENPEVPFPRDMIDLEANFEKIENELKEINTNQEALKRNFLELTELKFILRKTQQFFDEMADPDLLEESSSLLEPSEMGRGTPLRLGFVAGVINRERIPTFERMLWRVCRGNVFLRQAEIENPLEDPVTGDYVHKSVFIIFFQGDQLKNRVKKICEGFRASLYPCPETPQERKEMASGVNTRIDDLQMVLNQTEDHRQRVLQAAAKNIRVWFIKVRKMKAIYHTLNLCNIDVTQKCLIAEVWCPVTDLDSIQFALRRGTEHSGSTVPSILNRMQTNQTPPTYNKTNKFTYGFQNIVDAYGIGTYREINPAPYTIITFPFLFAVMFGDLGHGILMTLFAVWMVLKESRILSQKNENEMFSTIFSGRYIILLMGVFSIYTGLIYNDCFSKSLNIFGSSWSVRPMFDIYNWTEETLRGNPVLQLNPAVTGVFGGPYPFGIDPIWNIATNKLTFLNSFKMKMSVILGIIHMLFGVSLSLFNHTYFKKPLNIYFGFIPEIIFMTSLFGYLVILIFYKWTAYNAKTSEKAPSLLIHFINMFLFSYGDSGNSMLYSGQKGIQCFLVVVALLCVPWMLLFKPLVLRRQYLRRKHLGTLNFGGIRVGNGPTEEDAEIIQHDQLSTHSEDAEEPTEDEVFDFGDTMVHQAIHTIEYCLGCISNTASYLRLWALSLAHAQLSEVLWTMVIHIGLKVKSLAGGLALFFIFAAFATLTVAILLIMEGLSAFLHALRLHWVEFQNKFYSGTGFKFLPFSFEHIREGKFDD
Vacuolar ATPase in human osteoclastoma (hOc), sequence (P27449 whole entry, looked up): as the sequence (P23956 whole entry, looked up) above, with A4S, N6S, M51Q, G83D, R88K counted along it
Vacuolar ATPase in human osteoclastoma (hOc), sequence (Q13488 whole entry, looked up): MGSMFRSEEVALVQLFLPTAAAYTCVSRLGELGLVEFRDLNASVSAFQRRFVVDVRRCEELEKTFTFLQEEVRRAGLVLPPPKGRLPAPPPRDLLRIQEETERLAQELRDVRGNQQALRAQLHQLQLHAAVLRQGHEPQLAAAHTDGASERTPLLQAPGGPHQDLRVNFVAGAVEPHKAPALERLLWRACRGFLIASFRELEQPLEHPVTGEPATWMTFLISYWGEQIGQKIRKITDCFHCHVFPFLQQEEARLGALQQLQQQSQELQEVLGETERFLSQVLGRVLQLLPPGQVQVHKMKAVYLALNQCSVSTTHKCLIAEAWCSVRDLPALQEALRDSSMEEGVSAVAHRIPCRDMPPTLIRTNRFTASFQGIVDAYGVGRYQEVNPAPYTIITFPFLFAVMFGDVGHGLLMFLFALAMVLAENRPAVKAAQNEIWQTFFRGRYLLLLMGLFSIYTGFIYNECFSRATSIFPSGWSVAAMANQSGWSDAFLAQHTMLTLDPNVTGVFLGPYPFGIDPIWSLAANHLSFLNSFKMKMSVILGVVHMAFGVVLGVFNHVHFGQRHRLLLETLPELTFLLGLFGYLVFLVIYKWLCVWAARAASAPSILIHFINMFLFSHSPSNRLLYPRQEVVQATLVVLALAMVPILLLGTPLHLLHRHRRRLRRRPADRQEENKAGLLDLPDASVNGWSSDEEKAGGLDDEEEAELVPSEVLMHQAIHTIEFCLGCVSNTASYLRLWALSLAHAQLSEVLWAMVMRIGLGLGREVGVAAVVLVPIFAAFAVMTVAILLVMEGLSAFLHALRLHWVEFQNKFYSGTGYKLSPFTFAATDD

| Compound | IC50 (HepG2 cells) | IC50 (HT29/Mit cells [1]; HT-29/Mit resistant line, 72 h treatment, read-out: Antiproliferative activity (IC50 ± S.D.) HT-29/Mit) | IC50 (HT29 cells [2]; [7]) | IC50 [3] | IC50 (HepG2 cells; Homo sapiens) | IC50 (HT29/Mit cells [1]; [8]) | IC50 (HT29 cells [2]; [9]) | IC50 (HT29/Mit cells [1]; [10]) | IC50 (HT29 cells [2]; [11]) | IC50 [4] | effect in combination with topotecan (HT29 cells [5]) | effect in combination with topotecan (HT29/Mit cells [6]) |
| --- | --- | --- | --- | --- | --- | --- | --- | --- | --- | --- | --- | --- |
| CO/C1=C\C(C)=C\[C@@H](C)[C@@H](O)[C@@H](C)C/C(C)=C/C=C/[C@H](OC)[C@@H]([C@@H](C)[C@@H](O)[C@H](C)[C@@]2(O)C[C@@H](O)[C@H](C)[C@@H](C(C)C)O2)OC1=O [Bafilomycin A1, reference compound] | < 6 nM | 5 nM | 3 ± 2 nM | 0.1 nM | – | – | – | – | – | – | – | – |
| N.N.[Cl][Pt][Cl] [Cisplatin, reference compound] | > 25000 nM | – | 6800 nM | – | – | – | – | – | – | – | – | – |
| COC(=O)c1[nH]c2cc(OC)c(OC)cc2c1-c1ccc(OC)c(OC)c1 [Example 2, -3-(3,4-Dimethoxyphenyl)-5,6-dimethoxy-1H-indole-2-carboxylic acid methyl ester] | – | – | – | – | 25500 ± 4500 nM | 15200 ± 300 nM | 35200 ± 5200 nM | – | – | – | – | – |
| COC(=O)c1[nH]c2cc(OC)c(OC)cc2c1-c1ccccc1 [Example 3, 5,6-Dimethoxy-3-phenyl-1H-indole-2-carboxylic acid methyl ester] | – | – | – | – | – | 150 nM | 37300 nM | 100 to 3000 nM | 5000 to 42000 nM | 628 nM | – | – |
| CCOC(=O)c1[nH]c2cc(OC)c(OC)cc2c1-c1ccccc1 [Example 4, 5,6-Dimethoxy-3-phenyl-1H-indole-2-carboxylic acid ethyl ester] | – | – | – | – | – | < 100 nM | 37300 nM | 100 to 3000 nM | 5000 to 42000 nM | 350 nM | – | – |
| COC(=O)c1c(-c2ccc(OC)cc2)c2cc(OC)c(OC)cc2n1CCO [Example 12, 1-(2-Hydroxyethyl)-5,6-dimethoxy-3-(4-methoxyphenyl)-1H-indole-2-carboxylic acid methyl ester] | – | – | – | – | – | 660 ± 300 nM | 4600 nM | 100 to 3000 nM | 5000 to 42000 nM | 247 nM | synergistic effects | synergistic effects |
